# Test results from patent US20120028880A1, “VEGFR-1/NRP-1 TARGETING PEPTIDES” (priority 2007, published 2012).
# Read-outs that look alike come from different tables or passages of the source. Square brackets hold non-standard residues; d marks the D form. Ends that are not written are not given here. Peptide text beside a SMILES is read from it.
# What was measured:
# [1] = target: T1, VEGFR-1 (Homo sapiens, UniProt P17948); test: Phage binding competition assay, immobilized VEGFR-1
# T1 construct: purchased R&D Systems (Minneapolis, Minn.)
# T1 sequence (P17948 27-1338, species assumed): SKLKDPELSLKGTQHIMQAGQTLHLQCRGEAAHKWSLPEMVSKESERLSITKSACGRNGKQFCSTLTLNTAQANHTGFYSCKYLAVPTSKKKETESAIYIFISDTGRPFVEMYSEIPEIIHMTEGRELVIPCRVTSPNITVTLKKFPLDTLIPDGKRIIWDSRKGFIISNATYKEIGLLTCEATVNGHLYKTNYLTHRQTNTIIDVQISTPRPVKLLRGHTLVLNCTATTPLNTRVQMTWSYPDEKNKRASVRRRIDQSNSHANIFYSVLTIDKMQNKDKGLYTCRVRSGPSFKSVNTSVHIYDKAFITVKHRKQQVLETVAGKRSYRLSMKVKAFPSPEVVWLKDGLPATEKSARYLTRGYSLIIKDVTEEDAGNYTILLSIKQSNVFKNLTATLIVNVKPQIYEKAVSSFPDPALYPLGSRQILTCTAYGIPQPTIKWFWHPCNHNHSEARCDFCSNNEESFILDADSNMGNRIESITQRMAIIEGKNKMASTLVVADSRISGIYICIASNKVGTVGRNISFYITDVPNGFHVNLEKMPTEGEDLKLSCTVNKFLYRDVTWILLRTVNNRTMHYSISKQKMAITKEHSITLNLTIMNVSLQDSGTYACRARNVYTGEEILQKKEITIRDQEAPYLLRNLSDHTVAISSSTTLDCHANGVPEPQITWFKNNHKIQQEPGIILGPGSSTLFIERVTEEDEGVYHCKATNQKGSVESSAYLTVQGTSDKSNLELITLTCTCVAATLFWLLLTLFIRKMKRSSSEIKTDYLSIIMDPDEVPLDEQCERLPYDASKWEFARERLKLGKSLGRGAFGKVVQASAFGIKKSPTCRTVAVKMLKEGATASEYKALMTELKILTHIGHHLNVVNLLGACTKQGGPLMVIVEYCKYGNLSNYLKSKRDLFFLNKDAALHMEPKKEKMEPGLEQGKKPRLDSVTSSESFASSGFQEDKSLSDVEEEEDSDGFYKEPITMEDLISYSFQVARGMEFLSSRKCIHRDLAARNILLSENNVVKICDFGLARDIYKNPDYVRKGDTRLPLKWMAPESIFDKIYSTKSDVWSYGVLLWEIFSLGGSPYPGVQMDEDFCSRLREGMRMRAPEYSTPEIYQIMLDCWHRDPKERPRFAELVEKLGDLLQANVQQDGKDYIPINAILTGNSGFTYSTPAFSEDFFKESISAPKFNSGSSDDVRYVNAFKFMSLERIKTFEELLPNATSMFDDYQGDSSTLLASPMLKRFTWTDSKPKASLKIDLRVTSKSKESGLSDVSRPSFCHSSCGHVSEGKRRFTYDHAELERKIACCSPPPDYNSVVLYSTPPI
# Protocol: (§1) Phage assay. Phage was prepared by infection of log-phase culture of E. coli K91kan, and overnight growth in Luria-Bertani (LB) media supplemented with kanamycin (100 μg/ml) and tetracyclin (20 μg/ml) at 37° C. and 250 rpm. Phage was precipiated from the media supernatant by the PEG/NaCl method, and phage titer determined by serial dilution and colony counting (Giordano, 2001). For the phage binding and competition assays, VEGFR-1, NRP-1 or BSA (10 μg/ml in PBS) was immobilized on microtiter wells overnight at 4° C. Wells were washed twice, blocked with PBS 3% BSA for 2 h at room temperature and incubated with 10^9 TU of CPQPRPLC or negative control insertless (Fd-tet) phage in PBS 3% BSA. After 1 h at room temperature, wells were washed 10 times with PBS and phage bound to the immobilized receptors recovered by bacterial infection (Giordano, 2001).
# [2] = target: T2, NRP-1 (Homo sapiens, UniProt O14786); test: Phage binding competition assay, immobilized NRP-1
# T2 construct: purchased R&D Systems (Minneapolis, Minn.)
# T2 sequence (O14786 22-923): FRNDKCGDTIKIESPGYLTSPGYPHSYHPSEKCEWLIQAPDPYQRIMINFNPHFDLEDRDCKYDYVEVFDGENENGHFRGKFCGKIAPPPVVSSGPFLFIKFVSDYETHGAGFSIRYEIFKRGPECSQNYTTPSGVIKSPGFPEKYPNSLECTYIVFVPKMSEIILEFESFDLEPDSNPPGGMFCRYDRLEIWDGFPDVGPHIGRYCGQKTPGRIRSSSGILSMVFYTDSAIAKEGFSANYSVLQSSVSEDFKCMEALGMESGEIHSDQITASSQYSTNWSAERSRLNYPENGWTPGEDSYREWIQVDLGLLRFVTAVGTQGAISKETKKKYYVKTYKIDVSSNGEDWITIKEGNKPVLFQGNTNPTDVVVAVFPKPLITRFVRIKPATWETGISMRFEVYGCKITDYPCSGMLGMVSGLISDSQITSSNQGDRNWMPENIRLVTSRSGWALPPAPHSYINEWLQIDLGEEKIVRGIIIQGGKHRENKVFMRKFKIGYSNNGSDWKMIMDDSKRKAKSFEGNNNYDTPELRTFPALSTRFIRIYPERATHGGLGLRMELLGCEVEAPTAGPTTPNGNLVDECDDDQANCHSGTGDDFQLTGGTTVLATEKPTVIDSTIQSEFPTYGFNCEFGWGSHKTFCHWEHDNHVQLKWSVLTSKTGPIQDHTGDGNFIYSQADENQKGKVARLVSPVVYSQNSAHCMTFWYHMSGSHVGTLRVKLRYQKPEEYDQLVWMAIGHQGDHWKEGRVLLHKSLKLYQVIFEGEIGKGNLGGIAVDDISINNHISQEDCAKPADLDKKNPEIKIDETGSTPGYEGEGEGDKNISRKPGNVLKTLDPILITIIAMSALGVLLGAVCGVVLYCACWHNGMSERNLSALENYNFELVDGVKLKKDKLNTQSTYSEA
# Protocol: as §1
# [3] = system: pancreatin; test: Protease resistance assay; format: in vitro ADME; conditions: increasing concentrations of pancreatin, highest ratio 400 pg/nmol; 2 h at 37° C.; MALDI-TOF
# Protocol: Protease resistance assay. The D(LPR) and RPL peptides were diluted to 500 μg/ml in PBS and incubated with increasing concentrations of pancreatin (Sigma-Aldrich, St. Louis, Mo.) for 2 h at 37° C. Samples were then analyzed by mass spectroscopy (MALDI-TOF).
# [4] = Weight loss in diet-induced obese mice; format: in vivo, mouse
# From the text: The present inventors thus carried out studies to assess the ability of the LPR VEGFR-1 targeting peptides of the present invention to target fat tissue and thereby reduce weight in diet-induced obese mice. To this end, diet-induced obese mice were divided in groups and treated with the VEGFR-1/NRP-1 targeting peptide. C57BL/6 ]-60% DIO mice (36-weeks old) were purchased from The Jackson Laboratory. These animals were fed on a high calorie diet (J-60%) to produce a diet-induced obesity (DIO) phenotype. Animals were divided in groups and treated daily with: [Group 1]D(CLPRC) (SEQ ID NO:7) (N=5); [Group 2] CKGGRAKDC-GG-D(KLAKLAK)2 (SEQ ID NO:9) (N=3); [Group 3]D(CLPRC) combined with CKGGRAKDC-GG-D(KLAKLAK)2 (SEQ ID NO:10) (N=4); [Group 4] vehicle only (N=4). All animals were hydrated by intraperitoneally administration of 1 ml of saline solution (0.9% sodium chloride solution, USP quality) 30 minutes prior to treatment. Mice were treated daily with D(CLPRC) dissolved in phosphate buffered saline vehicle (PBS) (100 μl total injection) at a 50 mg/Kg/body weight dose (Groups 1 and 3); CKGGRAKDC-GG-D(KLAKLAK)2 (SEQ ID NO:9) in PBS was administered by subcutaneously (100 total volume) at 3 mg/Kg (Group 2) or at 1 mg/Kg when in combination with D(CLPRC) (Group 3) 5 days a week (Monday thru Friday). Mice were weighted once a week.
# [5] = system: white fat; conditions: previous studies of the inventors; cited from earlier work
# [6] = target: T1, VEGFR-1; conditions: Giordano et al., 2001; read-out: IC50 previously described for VEGFR-1; cited from earlier work
# [7] = target: T2, NRP-1; conditions: Giordano et al., 2001; read-out: IC50 previously described for NRP-1; cited from earlier work
# [8] = system: EF43.fgf4 derived tumors; test: Tumor growth, EF43.fgf4 breast cancer model; format: in vivo, mouse
# Protocol: Tumor growth. The EF43.fgf4 cells were cultured in Dulbelco's modified Eegles medium supplemented with fetal bovine serum, glutamine and antibiotics. Cells were harvested before reaching confluence and injected subcutaneously in the mammary fatpad of Balb/c mice. Mier 10 days, tumor reached ˜50-80 mm^3 and were then separated into four groups with seven animals (N=7). Animals in each group were treated with either vehicle only (phosphate saline buffered solution) or with control peptide D(CAPAC) (SEQ ID NO:6) or D(LPR) (at 50 mg/Kg) or with the cyclic version D(CLPRC) (SEQ ID NO:7) (at 25 mg/Kg). Tumor volume was calculated by measuring the length of the long (L) and the short (S) sides of each tumor (V=S^2×L×[…]).
# Statistical analysis. For the in vivo experiments, statistical significance of the difference was computed by Kruskal-Wallis test (non parametric one factor ANOVA method) with p<0.05 for each treatment day. […] Multiple comparisons were adjusted by Bejamini & Hochberg method. All the statistical analysis was computed using The R (Version 2.4.1) Project for Statistical Computing.
# [9] = fat-zapper alone, 3 mg/Kg subcutaneously, obese mice
# [10] = obese C57BL/6 mice, 50 mg/Kg daily intraperitoneally, over the treatment period
compound,measurement,setting,value
"CC(C)C[C@@H](N)C(=O)N1CCC[C@@H]1C(=O)N[C@H](CCCNC(=N)N)C(=O)O [D(LPR), D-Leu-D-Pro-D-Arg] (H-[dL]-[dP]-[dR]-OH)",IC50,[1],0.001 to 0.01 nM
same,IC50,[2],0.001 to 0.01 nM
same,proteolytic degradation by pancreatin (breakdown products by mass spectroscopy),[3],No breakdown products were observed
"CC(C)C[C@H](NC(=O)[C@@H]1CCCN1C(=O)[C@@H](N)CCCNC(=N)N)C(=O)O [RPL, L-Arg-L-Pro-L-Leu, reference compound] (H-Arg-Pro-Leu-OH)",proteolytic degradation by pancreatin (breakdown products by mass spectroscopy),[3],marked degradation
"CKGGRAKDC-GG-D(KLAKLAK)2 (CKGGRAKDCGG[dK][dL][dA][dK][dL][dA][dK][dK][dL][dA][dK][dL][dA][dK]; cysteine pairing not given here) [fat-zapper, homing peptide … conjugated to the proapoptotic peptide D(KLAKLAK)2, reference compound]",weight loss,[4]; [9],about 10 grams
same,"weight loss, % body weight",[4]; [9],20 % body weight
same,therapeutic dose that induces fat ablation,[5],≥ 3 mg/Kg/body weight
CPQPRPLC,IC50,[6],~1 nM
same,IC50,[7],50 to 100 nM
"D(Cys Leu Pro Arg Cys) ([dC][dL][dP][dR][dC]; also: cyclic, ring type not given here) [D(CLPRC)]",effect on tumor volume,"[8]; 25 mg/Kg daily, Balb/c mice",significant reduction in tumor volume
same,effect on tumor volume (FIG. 3 legend),"[8]; legend: 50 mg/Kg daily, after five days of treatment, compared to control animals",reduced tumor volume
same,weight loss,[4]; [10],about 3 grams
same,"weight loss, % of body weight",[4]; [10],approx. 6 % of body weight
